Values of other authors in patent US20040115266A1, “Oral itraconazole formulations and methods of making the same” (priority 2004, published 2004).

CCC(C)n1ncn(-c2ccc(N3CCN(c4ccc(OCC5COC(Cn6cncn6)(c6ccc(Cl)cc6Cl)O5)cc4)CC3)cc2)c1=O (single isomer, unassigned; (+)) [Itraconazole, (+)-cis-4-[4-[4-[4-[[2-(2,4-dichlorophenyl)-2-(1H-1,2,4-triazol-1-ylmethyl)-1,3-dioxolan-4-yl]methoxy]phenyl]-1-piperazinyl]phenyl]-2,4-dihydro-2-(1-methylpropyl)-3H-1,2,4-triazol-3-one]
0.1 N Hydrochloric acid solubility (0.1 N Hydrochloric acid): < 6 micrograms per milliliter | water solubility (water): less than 1 microgram per milliliter
